Reference: US20070238770A1, “PROCESS FOR PREPARING NOVEL CRYSTALLINE FORMS OF PELIGLITAZAR, NOVEL STABLE FORMS PRODUCED THEREIN AND FORMULATIONS” (Bristol-Myers Squibb Company, priority 2006, published 2007)

Columns and labels:
[1] = Solubility in water; assay type: physicochemical; settings: final pH 7.6
[2] = Solid state stability under storage conditions (DSC, PXRD, HPLC); settings: for solid state stability (physically and chemically): RT/RL, 25° C./60% RH, 40° C./75% RH, 50° C., up to 2 weeks, DSC, PXRD, HPLC analysis
[3] = Moisture-sorption isotherm; assay type: physicochemical; settings: from 25 to 75% RH at 25° C.
Description: Moisture sorption isotherms were collected in a VTI SGA-100 Symmetric Vapor Analyzer using approximately 10 mg of sample. The sample was dried at 60° C. until the loss rate of 0.0005 wt %/min was obtained for 10 minutes. The sample was tested at 25° C. and 3 or 4, 5, 15, 25, 35, 45, 50, 65, 75, 85, and 95% RH. Equilibration at each RH was reached when the rate of 0.0003 wt %/min for 35 minutes was achieved or a maximum of 600 minutes.

[4] = Mechanical stress on crystal form; assay type: physicochemical; settings: mechanical stress applied

| Compound | solubility in water [1] | solid state stability (physically and chemically) [2] | moisture uptake (hygroscopicity) [3] | conversion of N-1 form to the N-2 form under mechanical stress [4] | conversion of the N-1 form to the N-2 form (PXRD analysis) ([2]; under the storage conditions of b18) |
| --- | --- | --- | --- | --- | --- |
| COc1ccc(OC(=O)N(CC(=O)O)[C@@H](C)c2ccc(OCCc3nc(-c4ccccc4)oc3C)cc2)cc1.NCCCC[C@H](N)C(=O)O | greater than 124 mg/mL | stable | – | – | – |
| COc1ccc(OC(=O)N(CC(=O)O)[C@@H](C)c2ccc(OCCc3nc(-c4ccccc4)oc3C)cc2)cc1 [Form N-1, peliglitazar] | – | stable | negligible | will not cause conversion | no conversion |
